These results are taken from patent US20240270712A1, “BENZIMIDAZOLE COMPOUND OR SALT THEREOF, CANINE FILARIASIS CONTROL AGENT CONTAINING SAME, AND METHOD OF USE THEREOF” (NIHON NOHYAKU CO., LTD., priority 2021, published 2024).

Bounds are passed on as bounds.

A word on the inhibition: it is the share of the control response that was lost under treatment.

The assay concerns L-3 stage larvae of canine filariae (Dirofilaria immitis). The experiment in a line: Impact evaluation test on growth of canine filariae. To be noted: 168 h, read-out: growth inhibition rate (growth from L3-stage larvae to L4-stage larvae). The format is cell-based.

For the molecule `FC(F)(F)C(F)(F)COc1ccc(-c2nc3cc(Br)c(Br)cc3[nH]2)cn1` [Compound 1-5, 5,6-dibromo-2-(6-(2,2,3,3,3-pentafluoropropyloxy)pyridin-3-yl)benzimidazole], the inhibition at 50 ppm is at least 50%.
